Measurements taken from ChEMBL document CHEMBL2016455, “5-Benzothiazole substituted pyrimidine derivatives as HCV replication (replicase) inhibitors” (Bioorg Med Chem Lett, 2012).

Experiments:
[1] = Cytotoxicity against human hepatoma cells after 3 days by MTS assay; format: cell-based; conditions: for CC50 at 72 h: human hepatoma cells
Liver = test: Drug uptake in rat liver per mg tissue at 10 mg/kg, po after 6 hrs; format: ADME, organism-based; design: dose 10 mg/kg, route oral; conditions: in vivo
Hepatitis C virus = test: Antiviral activity against Hepatitis C virus isolate con1 1b infected in human hepatoma cells replicon cells after 3 days by RT-PCR analysis; format: functional, organism-based, Hepacivirus hominis, genotype 1b Con1
[2] = AUC (0 to 24 hrs) in rat at 10 mg/kg, po; format: ADME, organism-based; design: time < 24 hr, dose 10 mg/kg, route oral; conditions: plasma
[3] = Cytotoxicity against human hepatoma cells assessed as decrease in RNA level after 3 days by RT-PCR analysis; format: cell-based; conditions: for CC50 at 72 h: human hepatoma cells
[4] = Drug uptake in rat liver at 10 mg/kg, po after 4 hrs; format: ADME, organism-based; design: dose 10 mg/kg, route oral; conditions: read-out: Drug uptake
[5] = AUC (0 to 24 hrs) in rat at 2 mg/kg, iv and 10 mg/kg, po; format: ADME, organism-based; conditions: plasma
[6] = Oral bioavailability in monkey at 3 mg/kg; format: ADME, organism-based, Macaca mulatta; conditions: rhesus monkey, in vivo
[7] = Selectivity ratio of CC50 for human hepatoma cells to EC50 for Hepatitis C virus isolate con1 1b; format: ADME; conditions: read-out: Ratio CC50/EC50
Cytochrome P450 2C9 = Cytochrome P450 2C9 (Homo sapiens, UniProt P11712); test: Inhibition of CYP2C9; format: ADME
Cytochrome P450 3A4 = Cytochrome P450 3A4 (Homo sapiens, UniProt P08684); test: Inhibition of CYP3A4; format: ADME
[8] = AUC (0 to 24 hrs) in dog at 1 mg/kg, iv and 3 mg/kg, po; format: ADME, organism-based, Canis lupus familiaris; conditions: plasma
Cytochrome P450 2D6 = Cytochrome P450 2D6 (Homo sapiens, UniProt P10635); test: Inhibition of CYP2D6; format: ADME
[9] = Oral bioavailability in dog at 3 mg/kg; format: ADME, organism-based, Canis lupus familiaris; conditions: in vivo
[10] = Oral bioavailability in rat at 10 mg/kg; format: ADME, organism-based; conditions: in vivo
[11] = AUC (0 to 24 hrs) in monkey at 1 mg/kg, iv and 3 mg/kg, po; format: ADME, organism-based, Macaca mulatta; conditions: rhesus monkey, plasma
[12] = AUC (0 to 6 hrs) in rat at 10 mg/kg, po; format: ADME, organism-based; design: time < 6 hr, dose 10 mg/kg, route oral; conditions: plasma
[13] = Hepatitis C virus, genotype 1b Con1, 72 h

Cytochrome P450 2C9, sequence (P11712 whole entry): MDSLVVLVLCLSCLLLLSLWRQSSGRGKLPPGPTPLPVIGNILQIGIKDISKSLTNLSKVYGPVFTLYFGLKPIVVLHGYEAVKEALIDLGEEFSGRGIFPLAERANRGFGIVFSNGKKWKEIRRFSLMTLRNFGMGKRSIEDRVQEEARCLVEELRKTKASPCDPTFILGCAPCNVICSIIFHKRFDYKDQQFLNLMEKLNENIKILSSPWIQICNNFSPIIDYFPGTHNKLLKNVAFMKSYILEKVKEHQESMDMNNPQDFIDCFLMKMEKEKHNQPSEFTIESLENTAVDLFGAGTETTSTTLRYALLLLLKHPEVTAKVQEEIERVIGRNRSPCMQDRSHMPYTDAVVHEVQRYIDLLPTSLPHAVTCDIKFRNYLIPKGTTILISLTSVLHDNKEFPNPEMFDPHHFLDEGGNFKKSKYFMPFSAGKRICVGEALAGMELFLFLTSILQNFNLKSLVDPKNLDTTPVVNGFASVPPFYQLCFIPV
Cytochrome P450 2D6, sequence (P10635 whole entry): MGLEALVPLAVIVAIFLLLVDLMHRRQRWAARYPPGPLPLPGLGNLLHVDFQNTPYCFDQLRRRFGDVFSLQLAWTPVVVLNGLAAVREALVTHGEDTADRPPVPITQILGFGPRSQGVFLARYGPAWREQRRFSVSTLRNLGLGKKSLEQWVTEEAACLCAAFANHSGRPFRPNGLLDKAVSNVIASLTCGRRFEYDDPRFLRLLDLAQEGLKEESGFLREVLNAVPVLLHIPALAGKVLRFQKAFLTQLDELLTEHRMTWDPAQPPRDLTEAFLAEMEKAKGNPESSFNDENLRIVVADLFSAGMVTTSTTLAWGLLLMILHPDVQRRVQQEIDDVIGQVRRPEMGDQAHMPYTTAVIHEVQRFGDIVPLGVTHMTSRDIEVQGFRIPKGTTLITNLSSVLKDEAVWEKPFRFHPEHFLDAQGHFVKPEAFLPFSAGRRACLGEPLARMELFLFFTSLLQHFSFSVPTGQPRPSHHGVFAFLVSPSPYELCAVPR
Cytochrome P450 3A4, sequence (P08684 whole entry): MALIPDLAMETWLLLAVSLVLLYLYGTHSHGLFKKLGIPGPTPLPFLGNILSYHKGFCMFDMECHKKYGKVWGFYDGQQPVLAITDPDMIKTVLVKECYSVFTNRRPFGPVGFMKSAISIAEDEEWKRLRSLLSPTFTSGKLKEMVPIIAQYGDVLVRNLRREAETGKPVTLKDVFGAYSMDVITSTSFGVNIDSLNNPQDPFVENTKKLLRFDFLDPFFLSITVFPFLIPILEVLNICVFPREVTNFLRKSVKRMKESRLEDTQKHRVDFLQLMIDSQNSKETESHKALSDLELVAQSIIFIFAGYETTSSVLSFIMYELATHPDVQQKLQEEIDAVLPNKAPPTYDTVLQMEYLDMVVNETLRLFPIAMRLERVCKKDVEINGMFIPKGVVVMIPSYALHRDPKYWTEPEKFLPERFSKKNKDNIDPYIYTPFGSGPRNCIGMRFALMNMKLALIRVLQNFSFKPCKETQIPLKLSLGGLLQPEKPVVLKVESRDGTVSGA

Drug uptake (Liver) | EC50 (Hepatitis C virus; [13]) | AUC(0-t) at 6 h [12] | Structure (SMILES) | CC50 at 72 h [1] | CC50 at 72 h [3] | other results
875 ng/g | 0.035 µM | 5.9 µM·h | COCCNc1nc(C)c(-c2nc3ccccc3s2)c(N[C@@H]2C[C@H](CO)[C@@H](O)[C@H]2O)n1 | 15 µM | 21 µM | –
3320 ng/g | 0.16 µM | 19.6 µM·h | Cc1nc(NC(C)C)nc(N[C@@H]2C[C@H](CO)[C@@H](O)[C@H]2O)c1-c1nc2ccccc2s1 | 14 µM | 13 µM | –
1240 ng/g | 0.09 µM | 5 µM·h | Cc1nc(NC(C)(C)C)nc(N[C@@H]2C[C@H](CO)[C@@H](O)[C@H]2O)c1-c1nc2ccccc2s1 | 13 µM | 12 µM | –

More lines, now with the values behind:

Structure (SMILES) | Drug uptake (Liver) | EC50 (Hepatitis C virus; [13]) | AUC(0-t) at 6 h [12] | CC50 at 72 h [1] | CC50 at 72 h [3] | other results
Cc1nc(N(C)C)nc(N[C@@H]2C[C@H](CO)[C@@H](O)[C@H]2O)c1-c1nc2ccccc2s1 | 1030 ng/g | 0.14 µM | – | 16 µM | 18 µM | AUC(0-t) at 24 h [2]: 11 µM·h
Cc1nc(NCC(F)(F)F)nc(N[C@@H]2C[C@H](CO)[C@@H](O)[C@H]2O)c1-c1nc2ccccc2s1 | – | – | – | > 25 µM | > 25 µM | EC50 (Hepatitis C virus): 0.8 µM; concentration at 4 h [4]: 8420 ng/g; AUC(0-t) at 24 h [2]: 7 µM·h
Cc1nc(NCC(F)(F)F)nc(N[C@@H]2C[C@H](CO)[C@@H](O)[C@H]2O)c1-c1nc2ccccc2s1.Cl | – | – | – | – | – | CC50 ([1]; 72 h): 17 µM; AUC(0-t) [5]: 7 µM·h; EC50 (Hepatitis C virus): 0.03 µM; bioavailability [6]: 8%; selectivity ratio [7]: > 550; INH (Cytochrome P450 2C9): > 20 µM; INH (Cytochrome P450 3A4): > 20 µM; AUC(0-t) [8]: 7.8 µM·h; INH (Cytochrome P450 2D6): > 20 µM; bioavailability [9]: 35%; bioavailability [10]: 82%; CC50 ([3]; 72 h): 25 µM; AUC(0-t) [11]: 0.3 µM·h
Nc1ncc(-c2nc3ccccc3s2)c(N[C@@H]2C[C@H](CO)[C@@H](O)[C@H]2O)n1 | 250 ng/g | 0.2 µM | 0.4 µM·h | > 25 µM | > 25 µM | –
Cc1nc(NCc2nccs2)nc(N[C@@H]2C[C@H](CO)[C@@H](O)[C@H]2O)c1-c1nc2ccccc2s1 | 150 ng/g | 0.03 µM | 0.5 µM·h | 21 µM | 23 µM | –
